According to patent US7163800B2, “Methods of screening compositions for G protein-coupled receptor desensitization inhibitory activity” (Molecular Devices Corporation, priority 2000, dated 2007):
Where two headings read alike, the source gives them in different places.

Columns and labels:
[1] = molecular target: HA-tagged human β2-adrenergic receptor (β2AR) (Homo sapiens, UniProt P07550); test: arrestin-GFP localization (Fgrains) assay in U20S-β2AR/ArrGFP cells, isoproterenol stimulated
Experimental: Each of the fifteen compounds was separately screened for GPCR desensitization inhibitory activity against HA-tagged human β2-adrenergic receptor (β2AR) and against human vasopressin V2 receptor (V2R). In addition, the effects of temperature and carbon dioxide (CO2) were evaluated with respect to each compound.

β2AR and V2R = conditions: inhibitory activity shown for both β2AR and V2R
Text: Each of the fifteen compounds was separately screened for GPCR desensitization inhibitory activity against HA-tagged human β2-adrenergic receptor (β2AR) and against human vasopressin V2 receptor (V2R).
As indicated by the Fgrains values for the cells in the Basal and Stimulated control wells, the Fgrains value determined by the IN Cell Analyzer 3000 in this example was functionally a measure of the average extent of desensitization in the cells in each well.

[2] = molecular target: human vasopressin V2 receptor (V2R) (Homo sapiens, UniProt P30518); test: arrestin-GFP localization (Fgrains) assay in U20S-V2R/ArrGFP cells, arginine vasopressin stimulated; type: cell-based; conditions: 100 nM arginine vasopressin
human vasopressin V2 receptor (V2R), sequence (P30518 whole entry): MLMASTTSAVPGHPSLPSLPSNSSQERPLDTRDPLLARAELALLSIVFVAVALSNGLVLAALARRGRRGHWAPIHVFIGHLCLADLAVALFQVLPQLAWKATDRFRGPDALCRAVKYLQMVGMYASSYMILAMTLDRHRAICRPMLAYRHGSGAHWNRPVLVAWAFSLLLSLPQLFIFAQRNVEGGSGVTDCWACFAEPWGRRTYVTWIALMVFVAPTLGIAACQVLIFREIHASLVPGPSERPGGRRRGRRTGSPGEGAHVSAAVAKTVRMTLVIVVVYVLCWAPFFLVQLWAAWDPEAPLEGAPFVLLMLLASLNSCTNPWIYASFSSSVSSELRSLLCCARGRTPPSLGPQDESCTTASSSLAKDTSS
Experimental: The assay was carried out using two different “double stable” human osteosarcoma cell (U20S) lines. […] The other cell line (U20S-V2R/ArrGFP) stably expressed V2R and the same arrestin-GFP conjugate.
The two cell lines (U20S-β2AR/ArrGFP and U20S-V2R/ArrGFP) were separately plated at 7000 cells/well on 384 well glass bottom plates. Two plates of U20S-β2AR/ArrGFP cells were prepared and two plates of U20S-V2R/ArrGFP cells were prepared.
Growth media was replaced with serum free media (i.e., Eagle's minimum essential medium (EMEM) buffered with 10 mM HEPES (N-2-Hydroxyethylpiperazine-N′-2-ethanesulfonic acid)) 24 hours after plating of the cells.
Each test compound was solvated using 100% dimethyl sulfoxide (DMSO). Multiple solutions of each compound were prepared at varying concentrations for testing in separate wells of each plate. If needed, the solutions were sonicated and heated to increase solubility. After preparation of the compound solutions, they were shielded from light.
Each of the solutions of varying concentrations of the fifteen compounds was added to a well on each of the four plates. The β2AR RT and V2R RT plates were incubated for 30 minutes at room temperature and atmospheric CO2.
Agonist was then added to each well. […] The β2AR RT and V2R RT plates were incubated for 30 minutes at room temperature and atmospheric CO2.
Each assay was then terminated using 1% paraformaldehyde containing 1 μM DRAQ5 DNA probe to fix the cells. The cells were analyzed using a pre-production model (alpha unit) of the IN Cell Analyzer 3000 (Amersham Biosciences), which is a line scanning, confocal imaging system. The IN Cell Analyzer 3000 was used to quantitate the localization of the arrestin-GFP conjugate for the cells in each well using the Amersham Biosciences granularity analysis GRNO algorithm. This algorithm finds the nucleus of cells and then dilates out a specified distance in which fluorescent spots or “grains” of arrestin-GFP localization are identified based on size and fluorescent intensity. The average of the fluorescent intensity of the identified grains per cell in an acquired image (i.e., Fgrains) was determined for each well on the plates.
The graphs for each compound as well as for the propanolol control are illustrated in FIGS. 7–22.
The curve-fitting program allowed the minimum and maximum values as well as the slope and EC50 values to vary rather than fixing the values to specified or collected values.

[3] = B2AR CO2 plate: 37° C., 5% CO2/95% O2, 100 nM isoproterenol
[4] = B2AR RT plate: room temperature, atmospheric CO2, 100 nM isoproterenol
[5] = V2R CO2 plate: 37° C., 5% CO2/95% O2
[6] = V2R RT plate: room temperature, atmospheric CO2
[7] = EC50, B2AR CO2 plate: 37° C., 5% CO2/95% O2, 100 nM isoproterenol
[8] = EC50, B2AR RT plate: room temperature, atmospheric CO2, 100 nM isoproterenol

HA-tagged human β2-adrenergic receptor (β2AR), sequence (P07550 whole entry): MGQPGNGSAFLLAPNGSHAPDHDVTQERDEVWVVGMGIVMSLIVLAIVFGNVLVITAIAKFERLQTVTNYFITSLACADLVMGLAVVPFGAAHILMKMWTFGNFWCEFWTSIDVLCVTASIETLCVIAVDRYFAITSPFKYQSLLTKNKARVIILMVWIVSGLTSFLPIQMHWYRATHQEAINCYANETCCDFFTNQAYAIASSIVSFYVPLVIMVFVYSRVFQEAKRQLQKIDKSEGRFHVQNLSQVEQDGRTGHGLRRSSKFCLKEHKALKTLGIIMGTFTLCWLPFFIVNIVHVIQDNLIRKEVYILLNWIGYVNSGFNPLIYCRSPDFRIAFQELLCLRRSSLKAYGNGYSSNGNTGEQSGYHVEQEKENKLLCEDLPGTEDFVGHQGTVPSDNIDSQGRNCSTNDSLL

| Max Rsp (change between fitted maximum and fitted minimum Fgrains) [1, 3] | Min (fitted minimum Fgrains) [1, 3] | slope of concentration-response curve [1, 3] | EC50 [1, 3] | pEC50 [1, 3] | Max Rsp (change between fitted maximum and fitted minimum Fgrains) [1, 4] | Min (fitted minimum Fgrains) [1, 4] | pEC50 [1, 4] | slope of concentration-response curve [1, 4] | EC50 [2, 5] | pEC50 [2, 5] | EC50 [2, 6] | Max Rsp (change between fitted maximum and fitted minimum Fgrains) [2, 6] | Min (fitted minimum Fgrains) [2, 6] | pEC50 [2, 6] | slope of concentration-response curve [2, 6] | Structure (SMILES) | indication of non-receptor-specific GPCR desensitization inhibitory activity (β2AR and V2R) | Max Rsp (change between fitted maximum and fitted minimum Fgrains) [2, 5] | Min (fitted minimum Fgrains) [2, 5] | slope of concentration-response curve [2, 5] | further results |
| --- | --- | --- | --- | --- | --- | --- | --- | --- | --- | --- | --- | --- | --- | --- | --- | --- | --- | --- | --- | --- | --- |
| 129 | 307 | 3.2 |  |  |  |  |  |  |  |  |  |  |  |  |  | CCC(=O)n1nc2c(c1C(C)(C)C)C(=O)c1ccccc1-2 [3-tert-Butyl-2-propionyl-2H-indeno[1,2-c]pyrazol-4-one] |  |  |  |  | EC50 [1]: 46.9 µM |
| 278 | 167 | 2.3 | 21.2 µM | 4.7 | 281 | 148 | 4.6 | 2.2 | 9.3 µM | 5.0 | 36.6 µM | 717 | −130 | 4.4 | 1.1 | O=C1NC(=O)C(c2cn(CCCN3CCNCC3)c3ccccc23)=C1c1c[nH]c2ccccc12 [Bisindolylmaleimide VII] | non-receptor-specific GPCR desensitization inhibitory activity | 336 | 250 | 2.4 | EC50 [1, 4]: 24.9 µM |
| 194 | 243 | 1.8 | 11.1 µM | 5.0 | 232 | 212 | 4.7 | 1.2 | 6 µM | 5.2 | 19.3 µM | 361 | 225 | 4.7 | 0.9 | NCCCn1cc(C2=C(c3c[nH]c4ccccc34)C(=O)NC2=O)c2ccccc21 [Bisindolylmaleimide III] | non-receptor-specific GPCR desensitization inhibitory activity | 298 | 291 | 1.9 | EC50 [1, 4]: 22.4 µM |
| 998 | −568 | 1.1 |  | 3.6 | 171 | 237 | 4.5 | 3.5 |  | 4.6 | 51.2 µM | 690 | −118 | 4.3 | 1.2 | Cl.NCCCn1cc(C2=C(c3c[nH]c4ccccc34)C(=O)NC2=O)c2ccccc21 [Bisindolylmaleimide III, Hydrochloride] | non-receptor-specific GPCR desensitization inhibitory activity | 455 | 129 | 1.4 | EC50 ([1]; B2AR CO2 plate: 37° C., 5% CO2/95% O2, 100 nM isoproterenol, Hydrochloride): 233 µM; EC50 ([1]; B2AR RT plate: room temperature, atmospheric CO2, 100 nM isoproterenol, Hydrochloride): 34.9 µM; EC50 ([2]; V2R CO2 plate: 37° C., 5% CO2/95% O2, Hydrochloride): 27.2 µM |
| 502 | −70 | 1.7 | 62.1 µM | 4.2 | 924 | −508 | 4.1 | 1.7 | 29.2 µM | 4.5 | 35 µM | 576 | −7 | 4.5 | 1.1 | CN1CCCC1CCn1cc(C2=C(c3c[nH]c4ccccc34)C(=O)NC2=O)c2ccccc21 (stereo not drawn) [Bisindolylmaleimide II] | non-receptor-specific GPCR desensitization inhibitory activity | 420 | 159 | 1.2 | EC50 [1, 4]: 87.3 µM |

| Structure (SMILES) | Max Rsp (change between fitted maximum and fitted minimum Fgrains) [1, 3] | Min (fitted minimum Fgrains) [1, 3] | slope of concentration-response curve [1, 3] | EC50 [1, 3] | pEC50 [1, 3] | Max Rsp (change between fitted maximum and fitted minimum Fgrains) [1, 4] | Min (fitted minimum Fgrains) [1, 4] | pEC50 [1, 4] | slope of concentration-response curve [1, 4] | EC50 [2, 5] | pEC50 [2, 5] | EC50 [2, 6] | Max Rsp (change between fitted maximum and fitted minimum Fgrains) [2, 6] | Min (fitted minimum Fgrains) [2, 6] | pEC50 [2, 6] | slope of concentration-response curve [2, 6] | indication of non-receptor-specific GPCR desensitization inhibitory activity (β2AR and V2R) | Max Rsp (change between fitted maximum and fitted minimum Fgrains) [2, 5] | Min (fitted minimum Fgrains) [2, 5] | slope of concentration-response curve [2, 5] | further results |
| --- | --- | --- | --- | --- | --- | --- | --- | --- | --- | --- | --- | --- | --- | --- | --- | --- | --- | --- | --- | --- | --- |
| C[n+]1cc2c3c(ccc2c2ccc4cc5c(cc4c21)OCO5)OCO3 [Sanguinarine Chloride (LOPAC), Sanguinarine Chloride] | 350 | 85 | 1.6 |  |  | 330 | 76 |  | 1.8 |  |  |  | 508 | 45 |  | 2.3 | non-receptor-specific GPCR desensitization inhibitory activity | 519 | 63 | 2.6 | EC50 [1, 7]: 3.3 µM; EC50 [1, 8]: 2.8 µM |
| C[n+]1cc2c3c(ccc2c2ccc4cc5c(cc4c21)OCO5)OCO3 [Sanguinarine Chloride (S5890), Sanguinarine Chloride] | 312 | 108 | 3.3 |  |  | 340 | 61 |  | 1.3 |  |  |  | 533 | 27 |  | 2.0 | non-receptor-specific GPCR desensitization inhibitory activity | 546 | 27 | 2.1 | EC50 [1, 7]: 7 µM; EC50 [1, 8]: 7.7 µM |
| Cn1cc(C2=C(c3cn(CCCN)c4ccccc34)C(=O)NC2=O)c2ccccc21 [RO-31-7549] | 243 | 193 | 1.2 | 9.4 µM | 5.0 | 423 | 4 | 4.5 | 0.8 | 2.7 µM | 5.6 | 3.3 µM | 320 | 250 | 5.5 | 1.5 | non-receptor-specific GPCR desensitization inhibitory activity | 357 | 240 | 1.0 | EC50 [1, 4]: 31.1 µM |
| O=C1NC(=O)C(c2c[nH]c3ccccc23)=C1c1c[nH]c2ccccc12 [Bisindolylmaleimide IV] |  |  |  |  |  |  |  |  |  | 69.2 µM | 4.2 |  |  |  |  |  |  | 277 | 292 | 6.5 |  |
